Among the data in ChEMBL document CHEMBL2073808, “P-glycoprotein inhibition by the multidrug resistance-reversing agent MS-209 enhances bioavailability and antitumor efficacy of orally administered paclitaxel” (Cancer Chemother Pharmacol, 2002) are Ki values, retold here.

Usually Ki stands for a dissociation constant, usually derived from enzyme kinetics or from competition with a known ligand. Read a low Ki as higher affinity.

In the test the target is ATP-dependent translocase ABCB1 (Homo sapiens, UniProt P08183). Kind of test: TP_TRANSPORTER: inhibition of Taxol transepithelial transport (basal to apical) in Caco-2 cells. It counts as functional, cell-based. Background: Caco-2 cells form a polarised layer with tight junctions and transporters.

Structures are written as SMILES.

ATP-dependent translocase ABCB1, sequence (P08183 whole entry): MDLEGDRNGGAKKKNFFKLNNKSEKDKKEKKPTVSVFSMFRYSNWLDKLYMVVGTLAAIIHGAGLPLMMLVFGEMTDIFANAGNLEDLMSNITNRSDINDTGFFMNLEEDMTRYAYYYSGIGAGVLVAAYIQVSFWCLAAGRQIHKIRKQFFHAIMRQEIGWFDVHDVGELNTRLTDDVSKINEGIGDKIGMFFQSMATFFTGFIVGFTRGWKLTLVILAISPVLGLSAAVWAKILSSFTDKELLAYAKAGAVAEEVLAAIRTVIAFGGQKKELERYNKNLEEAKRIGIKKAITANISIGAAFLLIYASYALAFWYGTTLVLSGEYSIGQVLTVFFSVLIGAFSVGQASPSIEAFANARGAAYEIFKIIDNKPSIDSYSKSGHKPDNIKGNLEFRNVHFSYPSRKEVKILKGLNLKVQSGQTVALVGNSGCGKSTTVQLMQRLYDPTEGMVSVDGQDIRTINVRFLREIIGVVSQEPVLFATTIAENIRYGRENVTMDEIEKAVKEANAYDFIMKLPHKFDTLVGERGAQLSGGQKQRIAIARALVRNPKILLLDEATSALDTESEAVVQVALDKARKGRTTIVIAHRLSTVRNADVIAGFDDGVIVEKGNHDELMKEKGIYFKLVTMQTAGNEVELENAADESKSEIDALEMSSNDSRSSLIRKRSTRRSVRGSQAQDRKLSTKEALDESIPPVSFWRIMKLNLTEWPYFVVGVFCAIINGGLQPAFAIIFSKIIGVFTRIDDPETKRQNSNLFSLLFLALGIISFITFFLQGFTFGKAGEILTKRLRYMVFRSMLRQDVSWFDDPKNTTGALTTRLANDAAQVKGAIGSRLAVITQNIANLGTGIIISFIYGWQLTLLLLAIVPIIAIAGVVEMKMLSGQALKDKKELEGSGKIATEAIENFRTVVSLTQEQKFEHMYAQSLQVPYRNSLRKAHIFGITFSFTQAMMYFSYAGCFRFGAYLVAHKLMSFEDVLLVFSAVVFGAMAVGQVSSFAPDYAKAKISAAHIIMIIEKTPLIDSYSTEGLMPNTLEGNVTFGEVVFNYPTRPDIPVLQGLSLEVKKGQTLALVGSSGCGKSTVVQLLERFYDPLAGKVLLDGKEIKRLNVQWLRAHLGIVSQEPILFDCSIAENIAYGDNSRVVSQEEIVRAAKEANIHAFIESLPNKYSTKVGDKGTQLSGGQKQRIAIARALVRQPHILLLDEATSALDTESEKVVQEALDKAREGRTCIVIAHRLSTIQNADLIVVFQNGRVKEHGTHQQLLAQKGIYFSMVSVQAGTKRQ

For `O=C(C(c1ccccc1)c1ccccc1)N1CCN(C[C@@H](O)COc2cccc3ncccc23)CC1`, the Ki was 0.4 µM.
